PMC10850145, “Hormonal steroids induce multidrug resistance and stress response genes in Neisseria gonorrhoeae by binding to MtrR” (Nature Communications, 2024)
Several values for one entry are separate records, joined by “and”; a condition that tells them apart may be missing. Equal values may be shown once.

What was measured:
[1] = biological target: T1, MtrR binding to rpoH operator (27mer) (Neisseria gonorrhoeae, UniProt P39897); assay: Fluorescence polarization based DNA binding assay, rpoH operator; settings: rpoH 27mer + 125 µM steroid
T1 construct: Hexa-histidine tag with TEV protease cleavage site (N, cleaved yes); made in house; host or cells: E. coli Rosetta Gami B(DE3) pLysS
Procedure: (§1) Fluorescence polarization based-DNA binding data were collected using a Panvera Beacon 2000 fluorescence polarization system (Invitrogen) and analyzed with Prism (Graphpad Software 9, 10). Purified MtrR was buffer exchanged into “DNA” binding buffer (150 mM NaCl, 20 mM Tris-HCl pH 7.5, 2.5% glycerol, 1 mM TCEP). […] The reported oligoduplexes containing the rpoH and mtrCDE binding site differ in lengths, 27mer and 21mer, respectively[17],[21]. […] BSA and dI-dC are included as carriers and to control for nonspecific DNA binding. Samples were excited at 490 nm and polarized emissions measured at 530 nm. Controls were run with no protein (DNA ± methanol, hormonal steroids) to ensure that millipolarization values were not affected by experimental conditions alone. The binding affinity of protein for DNA was determined using the following equation: P = Pf + (Pb – Pf) [M] / (Kd + [M]) where P is the measured polarization, Pf is the polarization of free DNA, Pb is the polarization of the completely bound DNA, Kd is the equilibrium dissociation constant, and M is the concentration of protein. Pb and Kd were determined by nonlinear least-squares analysis. At least three independent experimental measurements were averaged for each reported binding constant.

[2] = biological target: T2, MtrR (Neisseria gonorrhoeae, UniProt P39897); assay: Isothermal titration calorimetry, ligand binding to MtrR WT; settings: ITC
T2 construct: Hexa-histidine tag with TEV protease cleavage site (N, cleaved yes); made in house; host or cells: E. coli Rosetta Gami B(DE3) pLysS

[3] = biological target: T3, MtrR binding to mtrCDE operator (21mer) (Neisseria gonorrhoeae, UniProt P39897); assay: Fluorescence polarization based DNA binding assay, mtrCDE operator; settings: mtrCDE 21mer + 125 µM steroid
T3 construct: Hexa-histidine tag with TEV protease cleavage site (N, cleaved yes); made in house; host or cells: E. coli Rosetta Gami B(DE3) pLysS
Procedure: as §1

[4] = tested on: FA19-rpoH-lacZ; assay: Gonococcal growth in liquid culture (GC broth) with hormones (Fig S7)

T3 sequence (P39897 whole entry): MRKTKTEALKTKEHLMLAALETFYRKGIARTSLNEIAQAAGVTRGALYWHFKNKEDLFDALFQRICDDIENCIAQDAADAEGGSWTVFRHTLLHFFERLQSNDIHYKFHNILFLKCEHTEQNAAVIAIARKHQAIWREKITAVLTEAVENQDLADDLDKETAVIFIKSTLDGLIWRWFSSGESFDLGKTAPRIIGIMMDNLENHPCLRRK
T2 sequence (P39897 whole entry): as above
T1 sequence (P39897 whole entry): as above

C[C@]12CC[C@@H]3c4ccc(O)cc4CC[C@H]3[C@@H]1CC[C@@H]2O [β-Estradiol, β-estradiol]
fluorescence polarization, MtrR titration ([1]; MtrR WT dimer 0.00 nM): 0.00 mP | fluorescence polarization, MtrR titration ([1]; MtrR WT dimer 25.90 nM): 3.74 mP and 5.72 mP and 6.73 mP | fluorescence polarization, MtrR titration ([1]; MtrR WT dimer 35.50 nM): 6.01 mP and 7.12 mP and 8.13 mP | fluorescence polarization, MtrR titration ([1]; MtrR WT dimer 54.52 nM): 8.01 mP and 9.55 mP and 10.56 mP | fluorescence polarization, MtrR titration ([1]; MtrR WT dimer 73.35 nM): 11.39 mP and 12.36 mP | fluorescence polarization, MtrR titration ([1]; MtrR WT dimer 110.67 nM): 12.31 mP and 14.15 mP and 15.93 mP | fluorescence polarization, MtrR titration ([1]; MtrR WT dimer 147.65 nM): 15.17 mP and 15.72 mP and 17.43 mP | fluorescence polarization, MtrR titration ([1]; MtrR WT dimer 220.59 nM): 18.17 mP and 19.19 mP and 21.36 mP | fluorescence polarization, MtrR titration ([1]; MtrR WT dimer 292.55 nM): 20.01 mP and 21.72 mP and 23.36 mP | fluorescence polarization, MtrR titration ([1]; MtrR WT dimer 363.86 nM): 21.41 mP and 22.99 mP and 26.06 mP | fluorescence polarization, MtrR titration ([1]; MtrR WT dimer 434.54 nM): 23.51 mP and 24.99 mP and 26.53 mP | fluorescence polarization, MtrR titration ([1]; MtrR WT dimer 504.61 nM): 25.37 mP and 27.45 mP and 28.59 mP | fluorescence polarization, MtrR titration ([1]; MtrR WT dimer 574.07 nM): 29.37 mP and 27.75 mP and 29.19 mP | binding stoichiometry N (ligand per MtrR) [2]: ~ 1 | Kd ([2]; 25 °C, 1% MeOH, read-out: equilibrium dissociation constant (Kd), MtrR WT): 1.67 µM and ~1.67 µM | binding stoichiometry N (ligand per MtrR) ([2]; listed as EST): one molecule of steroid per MtrR monomer | fluorescence polarization, MtrR titration ([3]; MtrR WT dimer 0.00 nM): 0.00 mP | fluorescence polarization, MtrR titration ([3]; MtrR WT dimer 6.35 nM): 4.51 mP and 6.27 mP and 3.99 mP | fluorescence polarization, MtrR titration ([3]; MtrR WT dimer 11.32 nM): 5.41 mP and 7.10 mP and 5.13 mP | fluorescence polarization, MtrR titration ([3]; MtrR WT dimer 16.21 nM): 7.14 mP and 8.80 mP and 6.33 mP | fluorescence polarization, MtrR titration ([3]; MtrR WT dimer 35.50 nM): 8.94 mP and 8.19 mP | fluorescence polarization, MtrR titration ([3]; MtrR WT dimer 73.35 nM): 10.97 mP and 13.97 mP and 11.09 mP | fluorescence polarization, MtrR titration ([3]; MtrR WT dimer 110.67 nM): 13.61 mP and 15.83 mP and 13.69 mP | fluorescence polarization, MtrR titration ([3]; MtrR WT dimer 147.65 nM): 16.87 mP and 18.60 mP and 16.09 mP | fluorescence polarization, MtrR titration ([3]; MtrR WT dimer 220.59 nM): 20.11 mP and 24.13 mP and 19.63 mP | fluorescence polarization, MtrR titration ([3]; MtrR WT dimer 292.55 nM): 24.17 mP and 25.77 mP and 23.16 mP | fluorescence polarization, MtrR titration ([3]; MtrR WT dimer 363.86 nM): 26.44 mP and 29.33 mP and 25.99 mP | fluorescence polarization, MtrR titration ([3]; MtrR WT dimer 434.54 nM): 30.01 mP and 30.57 mP and 27.99 mP | fluorescence polarization, MtrR titration ([3]; MtrR WT dimer 504.61 nM): 31.07 mP and 33.77 mP and 30.59 mP | fluorescence polarization, MtrR titration ([3]; MtrR WT dimer 574.07 nM): 34.21 mP and 36.80 mP and 32.93 mP | fluorescence polarization, MtrR titration ([3]; MtrR WT dimer 711.46 nM): 37.61 mP and 38.13 mP and 35.23 mP | fluorescence polarization, MtrR titration ([3]; MtrR WT dimer 848.00 nM): 39.37 mP and 41.63 mP and 41.06 mP | growth curve reading after BLANKING ([4]; 0 hr, 0.1 µM): 0.013 | growth curve reading, raw replicates ([4]; 0 hr, 0.1 µM): 0.046 | growth curve reading after BLANKING ([4]; 0 hr, 1 µM): 0.013 | growth curve reading, raw replicates ([4]; 0 hr, 1 µM): 0.046 | growth curve reading after BLANKING ([4]; 0 hr, 10 µM): 0.013 | growth curve reading, raw replicates ([4]; 0 hr, 10 µM): 0.046 | growth curve reading after BLANKING ([4]; 0 hr, 25 µM): 0.013 | growth curve reading, raw replicates ([4]; 0 hr, 25 µM): 0.046 | growth curve reading after BLANKING ([4]; 0 hr, 50 µM): 0.013 | growth curve reading, raw replicates ([4]; 0 hr, 50 µM): 0.046 | growth curve reading after BLANKING ([4]; 1.18 hr, 0.1 µM): 0.020 | growth curve reading, raw replicates ([4]; 1.18 hr, 0.1 µM): 0.052 and 0.053 | growth curve reading after BLANKING ([4]; 1.18 hr, 1 µM): 0.020 | growth curve reading, raw replicates ([4]; 1.18 hr, 1 µM): 0.054 and 0.052 | growth curve reading after BLANKING ([4]; 1.18 hr, 10 µM): 0.020 | growth curve reading, raw replicates ([4]; 1.18 hr, 10 µM): 0.053 and 0.054 | growth curve reading after BLANKING ([4]; 1.18 hr, 25 µM): 0.021 | growth curve reading, raw replicates ([4]; 1.18 hr, 25 µM): 0.053 and 0.056 | growth curve reading after BLANKING ([4]; 1.18 hr, 50 µM): 0.019 | growth curve reading, raw replicates ([4]; 1.18 hr, 50 µM): 0.052 and 0.053 | growth curve reading after BLANKING ([4]; 2 hr, 0.1 µM): 0.030 | growth curve reading, raw replicates ([4]; 2 hr, 0.1 µM): 0.062 and 0.065 | growth curve reading after BLANKING ([4]; 2 hr, 1 µM): 0.030 | growth curve reading, raw replicates ([4]; 2 hr, 1 µM): 0.063 | growth curve reading after BLANKING ([4]; 2 hr, 10 µM): 0.031 | growth curve reading, raw replicates ([4]; 2 hr, 10 µM): 0.063 and 0.065 | growth curve reading after BLANKING ([4]; 2 hr, 25 µM): 0.030 | growth curve reading, raw replicates ([4]; 2 hr, 25 µM): 0.062 and 0.064 | growth curve reading after BLANKING ([4]; 2 hr, 50 µM): 0.030 | growth curve reading, raw replicates ([4]; 2 hr, 50 µM): 0.063 | growth curve reading after BLANKING ([4]; 3 hr, 0.1 µM): 0.041 | growth curve reading, raw replicates ([4]; 3 hr, 0.1 µM): 0.076 and 0.072 | growth curve reading after BLANKING ([4]; 3 hr, 1 µM): 0.041 | growth curve reading, raw replicates ([4]; 3 hr, 1 µM): 0.074 and 0.073 | growth curve reading after BLANKING ([4]; 3 hr, 10 µM): 0.043 | growth curve reading, raw replicates ([4]; 3 hr, 10 µM): 0.079 and 0.074 | growth curve reading after BLANKING ([4]; 3 hr, 25 µM): 0.044 | growth curve reading, raw replicates ([4]; 3 hr, 25 µM): 0.078 and 0.075 | growth curve reading after BLANKING ([4]; 3 hr, 50 µM): 0.040 | growth curve reading, raw replicates ([4]; 3 hr, 50 µM): 0.074 and 0.072 | growth curve reading after BLANKING ([4]; 4 hr, 0.1 µM): 0.055 | growth curve reading, raw replicates ([4]; 4 hr, 0.1 µM): 0.087 and 0.090 | growth curve reading after BLANKING ([4]; 4 hr, 1 µM): 0.056 | growth curve reading, raw replicates ([4]; 4 hr, 1 µM): 0.089 and 0.088 | growth curve reading after BLANKING ([4]; 4 hr, 10 µM): 0.057 | growth curve reading, raw replicates ([4]; 4 hr, 10 µM): 0.088 and 0.092 | growth curve reading after BLANKING ([4]; 4 hr, 25 µM): 0.060 | growth curve reading, raw replicates ([4]; 4 hr, 25 µM): 0.093 | growth curve reading after BLANKING ([4]; 4 hr, 50 µM): 0.052 | growth curve reading, raw replicates ([4]; 4 hr, 50 µM): 0.082 and 0.088 | growth curve reading after BLANKING ([4]; 5 hr, 0.1 µM): 0.072 | growth curve reading, raw replicates ([4]; 5 hr, 0.1 µM): 0.104 and 0.106 | growth curve reading after BLANKING ([4]; 5 hr, 1 µM): 0.072 | growth curve reading, raw replicates ([4]; 5 hr, 1 µM): 0.105 | growth curve reading after BLANKING ([4]; 5 hr, 10 µM): 0.071 | growth curve reading, raw replicates ([4]; 5 hr, 10 µM): 0.103 and 0.105 | growth curve reading after BLANKING ([4]; 5 hr, 25 µM): 0.076 | growth curve reading, raw replicates ([4]; 5 hr, 25 µM): 0.113 and 0.106 | growth curve reading after BLANKING ([4]; 5 hr, 50 µM): 0.065 | growth curve reading, raw replicates ([4]; 5 hr, 50 µM): 0.094 and 0.103 | growth curve reading after BLANKING ([4]; 5.95 hr, 0.1 µM): 0.090 | growth curve reading, raw replicates ([4]; 5.95 hr, 0.1 µM): 0.124 and 0.123 | growth curve reading after BLANKING ([4]; 5.95 hr, 1 µM): 0.093 | growth curve reading, raw replicates ([4]; 5.95 hr, 1 µM): 0.126 and 0.125 | growth curve reading after BLANKING ([4]; 5.95 hr, 10 µM): 0.086 | growth curve reading, raw replicates ([4]; 5.95 hr, 10 µM): 0.118 and 0.119 | growth curve reading, raw replicates ([4]; 5.95 hr, 25 µM): 0.134 and 0.124 | growth curve reading after BLANKING ([4]; 5.95 hr, 50 µM): 0.083 | growth curve reading, raw replicates ([4]; 5.95 hr, 50 µM): 0.110 and 0.122 | growth curve reading, raw replicates ([4]; 6.82 hr, 0.1 µM): 0.137 and 0.133 | growth curve reading, raw replicates ([4]; 6.82 hr, 1 µM): 0.143 and 0.139 | growth curve reading after BLANKING ([4]; 6.82 hr, 10 µM): 0.092 | growth curve reading, raw replicates ([4]; 6.82 hr, 10 µM): 0.127 and 0.123 | growth curve reading after BLANKING ([4]; 6.82 hr, 25 µM): 0.114 | growth curve reading, raw replicates ([4]; 6.82 hr, 25 µM): 0.156 and 0.139 | growth curve reading, raw replicates ([4]; 6.82 hr, 50 µM): 0.124 and 0.136
